Each structure is given as a SMILES string.

One data set concerns migraine headache. The conditions noted are these: cited from earlier work; for efficacy in acute treatment of migraine (in words): literature reports.
Data set [1] has as its system quinpirole-induced yawning in rats. In words: antagonism of quinpirole-induced yawning in rats. It counts as in vivo, Male Sprague Dawley Rats. On the procedure: Yawning is a behavior that has been linked to activation of dopaminergic neurotransmission.
Male Sprague Dawley Rats were used in this example. The animals were allowed 12 day acclimatization before testing and at the time of the study, their body weights ranged from 280-330 grams. The rats were housed in standard size steel cages with four animals per cage and were maintained on a 12 hour light/dark schedule with the lights being on from 6:00 a.m. to 6:00 p.m. All tests were performed between 8:00 a.m. and 2:00 p.m. Six animals were used per group.
The animals were then placed individually in a 6″×6″plexiglass observation cages and the number of yawns were counted for the subsequent 30 minutes. The results are shown in FIG. 1 with the data being expressed as the mean total number of yawns per 30 minutes. An analysis of variance was used for statistical calculations and probability levels of <0.05 was regarded as being statistically significant.

The test system of a further data set is migraine. The conditions noted are these: literature reports; cited from earlier work.
In a further data set the target is D2 dopamine receptor (Homo sapiens, UniProt P14416). To be noted: cited from earlier work.
Sequence of D2 dopamine receptor (P14416 whole entry): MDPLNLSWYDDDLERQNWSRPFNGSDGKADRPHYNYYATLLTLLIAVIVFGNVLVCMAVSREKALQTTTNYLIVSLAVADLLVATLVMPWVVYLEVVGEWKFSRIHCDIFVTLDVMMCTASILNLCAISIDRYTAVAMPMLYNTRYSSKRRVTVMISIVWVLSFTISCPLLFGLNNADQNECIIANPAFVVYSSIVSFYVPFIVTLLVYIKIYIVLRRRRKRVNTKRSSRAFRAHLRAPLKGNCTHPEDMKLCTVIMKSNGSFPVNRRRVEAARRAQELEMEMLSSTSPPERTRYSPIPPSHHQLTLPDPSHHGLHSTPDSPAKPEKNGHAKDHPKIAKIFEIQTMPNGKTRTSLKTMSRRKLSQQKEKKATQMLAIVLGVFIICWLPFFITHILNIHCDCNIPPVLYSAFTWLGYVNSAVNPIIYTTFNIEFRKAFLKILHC
Setting [2] is: within 60 minutes of administration, randomized, double-blind clinical trial (Jones et al 1989).

On to `CN(C)CCCN1c2ccccc2Sc2ccc(Cl)cc21` [Chlorpromazine], for which the “efficacy in acute treatment of migraine (in words)” value (“efficacy in acute treatment” for short) with migraine headache is recorded as “highly effective”. For the same molecule, the common side effect entry in the data set on migraine headache (migraine patients in an emergency department (Lane et al 1985)) is recorded as “moderate drowsiness”.
`CCCN1CCC[C@@H](c2cccc(S(C)(=O)=O)c2)C1` [Cmpd 1, S-(−)-3-[3-(methylsulfonyl)phenyl]-1-propyl-piperidine]: the “antagonism of the yawning behavior induced by quinpirole” value in data set [1] (10 or 30 mg/kg injected 15 minutes before quinpirole 0.1 mg/kg) was “dose-dependent and complete antagonism”. Also, in data set [1] (given alone at a dose of 30 mg/kg), the “induction of yawning behavior by compound given alone” value was “failed to induce yawning behavior”.
Regarding `O=c1[nH]c2ccccc2n1CCCN1CCC(n2c(=O)[nH]c3cc(Cl)ccc32)CC1` [Domperidone], in the data set with migraine, the “preventive / prophylactic effect on migraine (in words)” value is recorded as “prevent the occurrence of a migraine”.
On to `Fc1ccc(C(c2ccc(F)cc2)N2CCN(C/C=C/c3ccccc3)CC2)cc1` [Flunarizine], for which, in the data set with migraine headache, the “efficacy in acute treatment” value is “high degree of relief”. Besides, the “affinity for the D2 dopamine receptor (in words)” value on D2 dopamine receptor is recorded as “moderate degree of affinity”.
On to `CCN(CC)CCNC(=O)c1cc(Cl)c(N)cc1OC` [Metoclopramide], for which the “preventive / prophylactic effect on migraine (in words)” value in the data set with migraine is on record as “beneficial effect”. Further, the “affinity for the D2 dopamine receptor (in words)” value on D2 dopamine receptor is reported as “relatively low affinity”.
`CN1CCN(CCCN2c3ccccc3Sc3ccc(Cl)cc32)CC1` [Prochlorperazine]: the “efficacy in acute treatment” value in the data set on migraine headache is on record as “high degree of efficacy”. Also, in the data set on migraine headache (setting [2]), the “additional patients with partial relief” value is reported as 14% and the “patients with complete relief” value is given as 74%.
As for `O=C(CCCN1CCC(O)(c2ccc(Cl)cc2)CC1)c1ccc(F)cc1` [haloperidol], in the data set with migraine headache (Fisher, J Emerg Med 1995), the “patients with headache completely or substantially relieved” value is “six of six” and the “time to headache relief after administration” value is 25 to 65 min.
